Measured values as given in patent publication US5380825A (Sigma Chemical Company, priority 1991, dated 1995).
≈ marks a conversion by molar mass, not a printed value.

Columns and labels:
[1] = major metabolite of AZT; cited from earlier work
[2] = tested on: AZT antibodies; experiment: Immunological activity / tracer performance in FPIA for AZT (qualitative); assay type: binding; conditions: qualitative
Description: (§1) An equal volume of precipitation reagent was added per microcentrifuge tube. The tubes were centrifuged at greater than 9,000×g for 1 minute.
(§2) (2) A 17.5 ul sample of each serum extract was brought to approximately pH 7-8 by the addition of buffer.
(§3) (4) After an appropriate incubation time, the polarization of each reaction mixture was determined using a polarization spectrofluorimeter.

[3] = tested on: antibody to AZT; experiment: Nephelometric inhibition immunoassay (NIA) for AZT; assay type: binding; conditions: qualitative
Description: Typically this conjugate is prepared from a high molecular weight carrier such as horse apoferritin or serum proteins.

[4] = tested on: antisera to AZT, Rabbit 2 (immunized with AZT-3-V:BSA); experiment: FPIA comparison of tracers, antiserum of Rabbit 2 (Table 1); assay type: binding; conditions: for Polarization Units (P × 1000): 1 pmole of tracer, antiserum at the given titer; for ED50 AZT: concentration of AZT giving 50% reduction in polarization of this tracer relative to 0 tube; for Titer [Ab]: dilution of antiserum required to obtain the given polarization units with 1 pmole of tracer
Description: (§4) The immunogen (1 mg in 1 ml) was emulsified with an equal volume of Freund's Complete Adjuvant and injected intradermally into each of two female albino rabbits. The process was repeated in two weeks. Two weeks later, monthly subcutaneous booster injections were begun with 0.5 mg in 0.5 ml of the immunogen and 0.5 ml of Freund's Incomplete Adjuvant per animal. The rabbits were bled biweekly by a marginal ear vein technique beginning six weeks after the primary immunization. The blood collected was refrigerated, allowing clots to form, and the supernatant (antiserum) retained. The antiserum from each rabbit was collected and stored, either at -20° C. without preservative, or at 4° C. after addition of sodium azide to a final concentration of 0.1%. The same schedule was followed for each immunogen. Rabbits immunized produced antibodies to AZT.
(§5) Fluorescence Polarization Immunoassay for AZT
as §1, §2, §3
(§6) As further illustration of the invention polyclonal antibodies were raised in two rabbits by immunization with the conjugate of Example 4 (AZT-3-V:BSA) as is more fully described in Example 45 and stored at 4° C. with 0.1% sodium azide. A number of tracers were then compared as to their performance in FPIA using the antisera raised from two rabbits.
(§7) ^(1) TITER was defined as the dilution of antiserum (i.e., [Ab])
(§8) required to obtain the given polarization units (P × 1000) with 1
(§9) required to give a 50% reduction in polarization relative to a control (0
(§10) tube) containing no unlabeled AZT.

[5] = tested on: antisera to AZT, Rabbit 1 (immunized with AZT-3-V:BSA); experiment: FPIA comparison of tracers, antiserum of Rabbit 1 (Table 1); assay type: binding; conditions: for Polarization Units (P × 1000): 1 pmole of tracer, antiserum at the given titer; for ED50 AZT: concentration of AZT giving 50% reduction in polarization of this tracer relative to 0 tube; for Titer [Ab]: dilution of antiserum required to obtain the given polarization units with 1 pmole of tracer
Description: as §4, §5, §1, §2, §3, §6, §7, §8, §9, §10

[6] = tested on: AZT antibodies; experiment: Fluorescence quenching technique for assaying AZT; assay type: binding; conditions: qualitative
Description: Fluorescence quenching and fluorescence enhancement immunoassays are other homogeneous fluorescent assays based on the observation that some antibodies, upon binding to a fluorescent molecule, cause either an enhancement or decrease in fluorescence.

[7] = Solubility in water; assay type: physicochemical; conditions: UV, assuming E^M275 = 8600, read-out: concentration of saturated aqueous solution
Description: A mixture of 25 mg AZT-3-AA (Example 19), 15 mg NOS and 15 mg DCC in 1 ml of THF was stirred two hours at room temperature, then a solution of 25 mg TME in 500 ul of THF/MeOH (9+1) was added and the mixture was stirred overnight at room temperature. The suspension was filtered through a PTFE membrane to remove dicyclohexylurea and chromatographed by TLC on silica gel-F 250 um using the solvent system CHCl3 /MeOH/HOAc (90+10+1). Three major UV-absorbing bands were located: TME, Rf =0.13, ninhydrin positive, Pauly positive, migrates with TME reference; NOS, Rf =0.33, ninhydrin negative, Pauly negative, migrates with NOS reference; and product, Rf =0.40, ninhydrin negative, Pauly positive. The band corresponding to the product was scraped, eluted with MeOH and rechromatographed on RPF 250 um using the solvent system MeOH/H2 O/HOAc (33+66+2) to remove a trace of NOS. In this second chromatography system, Rf =0.42 (product) and Rf =0.81 (NOS). The product was eluted with MeOH/THF (1+1). A saturated aqueous solution was prepared and filtered through a PTFE membrane and stored at -20° C. The saturated aqueous solution was characterized by a UV wavelength scan and concentration of the solute was calculated to be 47 ug/ml, assuming E^M275 =8600.

SMILES	immunological activity in FPIA for AZT [2]	immunological activity in NIA for AZT [3]	Polarization Units (P × 1000) [4] [P × 1000]	ED50 AZT [4] [µg/mL]	Titer [Ab] [4]	Polarization Units (P × 1000) [5] [P × 1000]	ED50 AZT [5] [µg/mL]	Titer [Ab] [5]	also measured
Cc1cn([C@H]2C[C@H](N=[N+]=[N-])[C@@H](CO[C@@H]3O[C@H](C(=O)O)[C@@H](O)[C@H](O)[C@H]3O)O2)c(=O)[nH]c1=O [AZT-5'-glucuronide]									pharmacological activity [1]: believed to be pharmacologically inactive
COC(=O)C(Cc1ccc(O)cc1)NC(=O)CCC(=O)OC[C@H]1O[C@@H](n2cc(C)c(=O)[nH]c2=O)C[C@@H]1N=[N+]=[N-] (stereo partly drawn) [Example 43, 2-[(3'-azido-3'-deoxythymid-5'-yl)-succinamido]-3-(4-hydroxyphenyl)-propionic acid methyl ester]	immunologically active	immunologically active							
Cc1cn([C@H]2C[C@H](N=[N+]=[N-])[C@@H](CO)O2)c(=O)n(CCCC(=O)Nc2ccc3c(c2)C(=O)OC32c3ccc(O)cc3Oc3cc(O)ccc32)c1=O [Example 13, 5-[4-(3'-azido-3'-deoxythymid-3-yl)-butyramido]-fluorescein]			179	3.9 (≈ 5.71 µM)	115	170	1.3 (≈ 1.9 µM)	450	affinity and sensitivity as tracer [2]: satisfactory affinity and sensitivity
Cc1cn([C@H]2C[C@H](N=[N+]=[N-])[C@@H](COC(=O)CCC(=O)Nc3ccc4c(c3)C(=O)OC43c4ccc(O)cc4Oc4cc(O)ccc43)O2)c(=O)[nH]c1=O [Example 41, 5-[(3'-azido-3'-deoxythymid-5'-yl)-succinamido]-fluorescein]									immunoactivity by fluorescence quenching technique [6]: Immunoactivity of the product was demonstrated
COC(=O)C(Cc1ccc(O)cc1)NC(=O)Cn1c(=O)c(C)cn([C@H]2C[C@H](N=[N+]=[N-])[C@@H](CO)O2)c1=O (stereo partly drawn) [Example 24, 2-[2-(3'-azido-3'-deoxythymid-3-yl)-acetamido]-3-(4-hydroxyphenyl)-propionic acid methyl ester]	immunologically active	immunologically active							solubility [7]: 47 µg/mL (≈ 93.5 µM)
COc1nc(NCCn2c(=O)c(C)cn([C@H]3C[C@H](N=[N+]=[N-])[C@@H](CO)O3)c2=O)nc(Nc2ccc3c(c2)C(=O)OC32c3ccc(O)cc3Oc3cc(O)ccc32)n1 [Example 17, 3-[2-[4-(Fluoresceinyl-5)-6-methoxy-s-triazin-2-yl]aminoethyl]-3'-azido-3'-deoxythymidine]	immunologically active		179	4.9 (≈ 6.41 µM)	100	160	2.5 (≈ 3.27 µM)	190	
